Assay results from patent publication US10227327B2, “Inhibitors of metallo-beta-lactamase (MBL) comprising a zinc chelating moiety” (Universitetet I Oslo, priority 2013, dated 2019).

Legend:
VIM-2 = VIM-2 (Escherichia coli, UniProt Q5U7L7); assay: IC50 determination against purified MBL, nitrocefin reporter substrate; format: biochemical; settings: purified enzyme 1 nM, nitrocefin 50 μM, 25° C.
Procedure: (§1) General Protocol for Determination of IC50-Values
(§2) Buffers: A: 50 mM HEPES pH 7.2, 100 μM ZnCl2
(§3) • B: 50 mM HEPES pH 7.2, 100 μM ZnCl2 and 400 μg/ml Bovine Serum Albumin (BSA) Equipment: SpectraMax 96 well reader • 96 well plates • Cuvettes • General plastics: dilution tubes, eppendorfs etc. Method: Inhibitors: a. Dissolved in 100% DMSO at a concentration of 10 mM • b. Dissolve the inhibitor in buffer A to a concentration of 25% DMSO. No more than 2.5% DMSO is tolerable in the assay. 100% DMSO (10 mM); […]; […] • c. Make a 2-fold dilution series of the inhibitor. At least 8 dilutions should be made. See example in table 1 Reporter Substrate (Nitrocefin): • a. Dilute a small amount of nitrocefin in 1 ml of DMSO • b. Add 990 μl buffer A+10 μl of nitrocefin to a cuvette. • c. Measure initial OD at absorbance specific for the substrate • d. Add purified enzyme to the cuvette and let the hydrolysis run to completion (the more concentrated the enzyme the faster the hydrolysis will run) • e. Measure the end OD • f. Calculate the concentration of substrate: [(End OD−Initial OD)×dilution factor]/Δε (Δε Nitrocefin=17400) • g. Dilute nitrocefin to 100 μM in buffer A Enzyme: Dilute purified enzyme in buffer B to a concentration of 10 nM. Assay: a. Set the settings and temperature on the Spectramax/software: • I. Kinetics • II. λ: 482 • III. Time: 20 min • IV. Interval: 2-5 sec. • V. Mix before 1st read: 5 sec. • VI. Temp: 25° C. • b. Add 30 μl buffer A, 10 μl purified enzyme (final concn. 1 nM), and 10 μl inhibitor to assay wells (duplicates for each inhibitor concentration). Also include a negative control. Wells with no added inhibitor, just 40 μl buffer A. See illustration in table 1. • c. Incubate the plate in the reader for 5 min. • d. Add 50 μl nitrocefin (final concn. 50 μM) to assay wells. This should be done quickly—preferably with an electronic multi-channel pipette. • e. Start the readings immediately. Determine: the initial velocity (V0) for each inhibitor concentration and calculate IC50.

[1] = biological target: VIM-2 in E. coli SNO3 containing pET26b-blaVIM-2 (Escherichia coli, UniProt Q5U7L7); assay: MBL inhibition in whole E. coli cells expressing MBL (nitrocefin hydrolysis); format: cell-based; settings: whole cell, test substance 250 μM
[2] = biological target: GIM-1 in E. coli SNO3 containing pET26b-blaGIM-1 (Pseudomonas aeruginosa, UniProt Q704V1); assay: as above; format: cell-based; settings: whole cell, test substance 250 μM
GIM-1 = GIM-1 (Pseudomonas aeruginosa, UniProt Q704V1); assay: IC50 determination against purified MBL, nitrocefin reporter substrate; format: biochemical; settings: purified enzyme 1 nM, nitrocefin 50 μM, 25° C.
Procedure: as §1, §2, §3

NDM-1 = NDM-1 (Klebsiella pneumoniae, UniProt C7C422); assay: as above; format: biochemical; settings: purified enzyme 1 nM, nitrocefin 50 μM, 25° C.
Procedure: as §1, §2, §3

[3] = tested on: MBL-negative clinical strains; assay: Synergy with meropenem in MBL-negative clinical strains; format: cell-based
Procedure: (§4) General Protocol for Microbroth Dilution Method for Evaluating Antibacterial Activity of Compounds or Synergistic Effect of Compound-Antibiotic Combination
(§5) • Plate bacterial strain(s) on appropriate media: • Gram-negative bacteria with ESBLs or carbapenemases: green agar plates with 100 mg/L ampicillin • Gram-negative bacteria without β-lactamases: green agar plates • Gram-positive bacteria (Staphylococci and Enterococci): blood agar plates • Incubate o.n. at 37° C. Day 2: Prepare the Bacterial Inoculum: • Prepare a 0.5 McFarland suspension of bacteria in 0.85% NaCl. (Should be used within 15 min of preparation). • Dilute the 0.5 McFarland suspension 1:100 into MH broth. Check the inoculum by diluting the prepared bacterial suspension 1:100 (10 μl bacterial suspension+990 μl 0.85% NaCl). Plate 10 μl of the dilution on MH agar plates (×2). Incubate o.n. at 37° C., count the colonies and calculate the final CFU/ml inoculum in the plate by multiplying the average number of colonies with 10000 and divide by 2. The final inoculum should be between 3-7×10^5 CFU/ml. • Add 50 μl of the prepared bacterial suspension to each well in the microtiter plate except negative growth control. Preparation of Compounds/Antibiotics • Calculate the desired concentration-range and volume of the compounds/antibiotics in the assay. […] Dilute the stock solution in MH broth. […]

[4] = tested on: E. coli 50739467 (MBL negative); assay: Microbroth dilution, meropenem MIC with/without compound; format: cell-based; settings: 50739467 E. coli MBL negative; for Meropenem MIC (mg/L) in presence of compound: compound at 125 μM
Procedure: as §4
(§6) • Plate bacterial strain(s) on appropriate media: • Gram-negative bacteria with ESBLs or carbapenemases: green agar plates with 100 mg/L ampicillin • Gram-negative bacteria without β-lactamases: green agar plates • Gram-positive bacteria (Staphylococci and Enterococci): blood agar plates • Incubate o.n. at 37° C. Day 2: Prepare the Bacterial Inoculum: • Prepare a 0.5 McFarland suspension of bacteria in 0.85% NaCl. (Should be used within 15 min of preparation). • Dilute the 0.5 McFarland suspension 1:100 into MH broth. Check the inoculum by diluting the prepared bacterial suspension 1:100 (10 μl bacterial suspension+990 μl 0.85% NaCl). Plate 10 μl of the dilution on MH agar plates (×2). Incubate o.n. at 37° C., count the colonies and calculate the final CFU/ml inoculum in the plate by multiplying the average number of colonies with 10000 and divide by 2. The final inoculum should be between 3-7×10^5 CFU/ml. • Add 50 μl of the prepared bacterial suspension to each well in the microtiter plate except negative growth control. Preparation of Compounds/Antibiotics • Calculate the desired concentration-range and volume of the compounds/antibiotics in the assay. […] Dilute the stock solution in MH broth. Make subsequent 2-fold dilutions in MH broth of the desired concentrations if a concentration range is to be tested (remember the extra dilution factor in the assay plate). Always include extra volume for pipetting. Take into consideration stock solutions that are made in buffers that have an effect on bacterial growth (e.g. DMSO). Assay: • Determining the MIC of compounds/antibiotics alone: • Add 25 μl of each concentration of compound/antibiotic to row 2-11 (highest concentration in row 2) • Add 25 μl MH broth to row 2-11 • Add 50 μl MH broth to row 12 (positive control) • Add 100 μl MH broth to row 1 • Add 50 μl bacterial suspension to row 2-12. • Determining the MIC of antibiotics+compounds: • Add 25 μl of each concentration of antibiotic to row 2-11 (highest concentration in row 2) • Add 25 μl of compound to row 2-11 • Add 50 μl MH broth to row 12 (positive control) • Add 100 μl MH broth to row 1 • Add 50 μl bacterial suspension to row 2-12. • Incubate the plate for 20 hrs at 37° C. and determine the MIC in the presence and absence of inhibitor.

[5] = tested on: K. pneumoniae 50732159 (MBL negative); assay: as above; format: cell-based; settings: 50732159 K. pneumoniae MBL negative; for Meropenem MIC (mg/L) in presence of compound: compound at 125 μM
Procedure: as §4, §6

[6] = tested on: P. aeruginosa 50808021 (MBL negative); assay: as above; format: cell-based; settings: compound at 125 μM; 50808021 P. aeruginosa MBL negative
Procedure: as §4, §6

[7] = tested on: MBL-producing P. aeruginosa, K. pneumoniae and E. coli; assay: Synergy with meropenem in MBL-producing clinical strains; format: cell-based; settings: compound 125 μM
Procedure: as §4, §5

E. coli 50639799 (VIM-1) = assay: Microbroth dilution, meropenem MIC with/without compound; format: cell-based; settings: absence of inhibitor; 50639799 E. coli VIM-1
Procedure: as §4, §6

E. coli K71-77 (NDM-1) = assay: as above; format: cell-based; settings: absence of inhibitor; K71-77 E. coli NDM-1
Procedure: as §4, §6

[8] = tested on: K. pneumoniae A3-81 (VIM-1); assay: as above; format: cell-based; settings: absence of inhibitor; A3-81 K. pneumoniae VIM-1
Procedure: as §4, §6

[9] = tested on: K. pneumoniae K66-45 (NDM-1); assay: as above; format: cell-based; settings: absence of inhibitor; K66-45 K. pneumoniae NDM-1
Procedure: as §4, §6

Chain of NDM-1 (C7C422 whole entry, looked up, species assumed): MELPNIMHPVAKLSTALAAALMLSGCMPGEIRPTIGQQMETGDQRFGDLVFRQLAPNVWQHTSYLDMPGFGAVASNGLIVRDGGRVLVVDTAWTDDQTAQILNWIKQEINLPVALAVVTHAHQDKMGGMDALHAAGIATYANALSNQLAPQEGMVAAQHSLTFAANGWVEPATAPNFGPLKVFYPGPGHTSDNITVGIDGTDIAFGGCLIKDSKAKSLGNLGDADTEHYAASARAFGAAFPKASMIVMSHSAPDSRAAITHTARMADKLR
Chain of GIM-1 in E. coli SNO3 containing pET26b-blaGIM-1 (Q704V1 19-250 limits assumed): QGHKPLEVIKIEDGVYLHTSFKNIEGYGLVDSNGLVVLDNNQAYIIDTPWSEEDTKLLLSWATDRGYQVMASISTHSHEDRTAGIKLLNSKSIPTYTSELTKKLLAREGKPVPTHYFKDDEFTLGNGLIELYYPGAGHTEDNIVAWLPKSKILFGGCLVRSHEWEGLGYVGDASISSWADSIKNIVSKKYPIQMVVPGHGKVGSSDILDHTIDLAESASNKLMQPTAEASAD
Chain of GIM-1 (Q704V1 19-250 limits assumed): as above

| Structure (SMILES) | IC50 (VIM-2) [µM] | inhibition at 250 µM [1] [%] | inhibition at 250 µM [2] [%] | IC50 (GIM-1) [µM] | IC50 (NDM-1) [µM] | further results |
| --- | --- | --- | --- | --- | --- | --- |
| COc1ccc(Cn2cc(CN(Cc3ccccn3)Cc3ccccn3)nn2)cc1 [Example 3, 1-(1-(4-methoxybenzyl)-1H-1,2,3-triazol-4-yl)-N,N-bis(pyridin-2-ylmethyl)methanamine] | 19.8 | 74 | 15.7 | – | – | – |
| COc1cc(-n2cc(CN(Cc3ccccn3)Cc3ccccn3)nn2)cc(OC)c1OC [Example 5, 1-(pyridin-2-yl)-N-(pyridin-2-ylmethyl)-N-((1-(3,4,5-trimethoxyphenyl)-1H-1,2,3-triazol-4-yl)methyl)methanamine] | 11.5 | 73.8 | 14.4 | 0.79 | – | – |
| O=[N+]([O-])c1ccc(Cn2cc(CN(Cc3ccccn3)Cc3ccccn3)nn2)cc1 [Example 6, 1-(1-(4-nitrobenzyl)-1H-1,2,3-triazol-4-yl)-N,N-bis(pyridin-2-ylmethyl)methanamine] | 40.9 | 82.1 | 20.6 | 0.71 | – | – |
| COc1cc(Cn2cc(CN(Cc3ccccn3)Cc3ccccn3)nn2)cc(OC)c1OC [Example 7, 1-(pyridin-2-yl)-N-(pyridin-2-ylmethyl)-N-((1-(3,4,5-trimethoxybenzyl)-1H-1,2,3-triazol-4-yl)methyl)methanamine] | 18.7 | 75.3 | 12.5 | 0.14 | – | – |
| COc1ccc(Cn2cc(CN(Cc3ccccn3)Cc3ccccn3)nn2)cc1[N+](=O)[O-] [Example 8, 1-(1-(4-methoxy-3-nitrobenzyl)-1H-1,2,3-triazol-4-yl)-N,N-bis(pyridin-2-ylmethyl)methanamine] | 14.8 | 83 | 22.2 | 1.03 | 1.06 | – |
| COc1ccc(Cn2cc(CN(Cc3ccccn3)Cc3ccccn3)nn2)cc1Br [Example 9] | 19 | 84.2 | 14.8 | 3.15 | 0.6 | – |
| COc1ccc(-n2cc(CN(Cc3ccccn3)Cc3ccccn3)nn2)c(OC)c1 [Example 11, 1-(1-(2,4-dimethoxyphenyl)-1H-1,2,3-triazol-4-yl)-N,N-bis(pyridin-2-ylmethyl)methanamine] | 12.2 | 75.1 | 16.5 | 0.86 | – | – |
| FC(F)(F)c1ccc(-n2cc(CN(Cc3ccccn3)Cc3ccccn3)nn2)cc1 [Example 12, 1-(pyridin-2-yl)-N-(pyridin-2-ylmethyl)-N-((1-(4-(trifluoromethyl)phenyl)-1H-1,2,3-triazol-4-yl)methyl)methanamine] | 12.9 | 64.2 | 15.7 | 1.1 | – | synergistic effect with meropenem [3]: No synergistic effect |
| COc1ccc(-n2cc(CN(Cc3ccccn3)Cc3ccccn3)nn2)cc1 [Example 13, 1-(1-(4-methoxyphenyl)-1H-1,2,3-triazol-4-yl)-N,N-bis(pyridin-2-ylmethyl)methanamine] | 24.9 | 82 | 20.6 | 1.43 | 0.72 | – |
| C[C@@H](N)C(=O)N[C@H](C)C(=O)NCCc1ccc(NC(=O)CN(Cc2ccccn2)Cc2ccccn2)cc1.Cl [Example 24, (R)-1-(((R)-1-((4-(2-(bis(pyridin-2-ylmethyl)amino)acetamido)phenethyl)amino)-1-oxopropan-2-yl)amino)-1-oxopropan-2-aminium chloride] | 22.8 | 98.2 | 69.2 | 0.4 | 0.52 | Meropenem MIC (mg/L) in presence of compound [4]: 0.5 mg/L; Meropenem MIC (mg/L) in presence of compound [5]: 32 mg/L; Meropenem MIC (mg/L) in presence of compound [6]: 128 to 256 mg/L; synergistic activity with meropenem [7]: strong synergistic potentiation of meropenem; synergistic effect with meropenem [3]: No synergistic effect |
| C[C@@H](O)[C@H]1C(=O)N2C(C(=O)O)=C(S[C@@H]3CN[C@H](C(=O)N(C)C)C3)[C@H](C)[C@H]12 [MEM, Meropenem] | – | – | – | – | – | Meropenem MIC (E. coli 50639799 (VIM-1)): 8 to 16 µg/mL; Meropenem MIC ([4]; absence of inhibitor): 0.5 µg/mL; Meropenem MIC (E. coli K71-77 (NDM-1)): 1 to 4 µg/mL; Meropenem MIC ([5]; absence of inhibitor): 32 µg/mL; Meropenem MIC [8]: 64 to 256 µg/mL; Meropenem MIC [9]: 32 to 64 µg/mL |
| c1ccc(CN(CCN(Cc2ccccn2)Cc2ccccn2)Cc2ccccn2)nc1 [TPEN, N,N,N′,N′-tetrakis(2-pyridylmethyl) ethylenediamine, reference compound] | 0.3 | – | – | 0.61 | – | Meropenem MIC (mg/L) in presence of compound [4]: 1 mg/L; Meropenem MIC (mg/L) in presence of compound [5]: ≤0.064 mg/L; Meropenem MIC (mg/L) in presence of compound [6]: 64 mg/L; synergistic activity with meropenem [7]: Synergistic activity |
